Laboratory results published in PubChem BioAssay AID493145 (Sanford-Burnham Center for Chemical Genomics, 2011).
Several values for one entry are separate records, joined by “and”; a condition that tells them apart may be missing. Equal values may be shown once. Activity calls are given as the source filed them. No rule for the calls is given here.

Each molecule was assayed against Intestinal-type alkaline phosphatase (Homo sapiens) (UniProt P09923) (assay: human IAP activators, SAR follow-up, mouse IAP activator project, biochemical, human enzyme for mouse series (AID 493145)). Conditions: purified human intestinal alkaline phosphatase, enzymatic activity.
Chain of Intestinal-type alkaline phosphatase (Homo sapiens) (P09923 whole entry, looked up): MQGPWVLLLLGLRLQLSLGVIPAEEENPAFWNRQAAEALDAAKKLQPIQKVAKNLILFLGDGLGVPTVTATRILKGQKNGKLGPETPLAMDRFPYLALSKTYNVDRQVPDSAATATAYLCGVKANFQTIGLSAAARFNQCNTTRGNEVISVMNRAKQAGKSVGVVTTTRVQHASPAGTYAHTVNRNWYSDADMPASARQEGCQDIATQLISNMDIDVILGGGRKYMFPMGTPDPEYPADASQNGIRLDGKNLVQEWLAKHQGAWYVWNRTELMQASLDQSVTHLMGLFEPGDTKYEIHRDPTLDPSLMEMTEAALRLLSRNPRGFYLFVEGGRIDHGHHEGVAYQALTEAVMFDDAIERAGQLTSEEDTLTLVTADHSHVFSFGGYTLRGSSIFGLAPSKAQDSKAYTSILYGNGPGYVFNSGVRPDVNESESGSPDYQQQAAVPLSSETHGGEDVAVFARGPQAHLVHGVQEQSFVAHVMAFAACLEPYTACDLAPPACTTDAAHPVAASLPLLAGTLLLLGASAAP

EC50	SMILES
> 100 µM (inactive)	O=C(CN1C(=O)/C(=C/c2ccco2)SC1=S)Nc1ccc(C(=O)O)c(O)c1
42.6 µM	CCN(C(=O)CN1C(=O)/C(=C\c2ccco2)SC1=S)C1CCS(=O)(=O)C1 (configuration not stated)
> 100 µM (inactive)	COc1ccccc1CNC(=O)CCNS(=O)(=O)c1ccc2[nH]c(=O)oc2c1
> 100 µM (inactive)	COc1cccc(CNC(=O)CCNS(=O)(=O)c2ccc3[nH]c(=O)oc3c2)c1
> 100 µM (inactive)	COc1ccc(OC)c(NC(=O)CCNS(=O)(=O)c2ccc3[nH]c(=O)oc3c2)c1
> 100 µM (inactive)	COc1ccc(CNC(=O)CSc2sc3c(O)cc(=O)[nH]c3c2C#N)cc1OC
> 100 µM (inactive)	O=C(C1CCN(S(=O)(=O)c2ccc3[nH]c(=O)oc3c2)CC1)N1CC=C(c2ccccc2)CC1
> 100 µM (inactive)	CSc1cccc(NC(=O)CCNS(=O)(=O)c2ccc3[nH]c(=O)oc3c2)c1
13.5 µM	COc1cc(C(=O)NNc2nc3cc4c(cc3s2)OCO4)cc(OC)c1OC
> 100 µM (inactive)	N#Cc1c(SCC(=O)Nc2ccc(Cl)cc2Cl)sc2c(O)cc(=O)[nH]c12
> 100 µM (inactive)	O=C(CCNS(=O)(=O)c1ccc2[nH]c(=O)oc2c1)Nc1ccccc1
> 100 µM (inactive)	CC(C(=O)Nc1cccc(C(=O)O)c1)N1C(=O)/C(=C\c2ccco2)SC1=S (configuration not stated)
> 100 µM (inactive)	O=C(CN1C(=O)/C(=C/c2ccco2)SC1=S)Nc1ccc2nccnc2c1
> 100 µM (inactive)	O=C(CN1C(=O)/C(=C/c2ccco2)SC1=S)Nc1ccc(O)c(C(=O)O)c1
> 100 µM (inactive)	CC(C(=O)NCCc1ccc(O)cc1)N1C(=O)/C(=C/c2ccco2)SC1=S (configuration not stated)
> 100 µM (inactive)	O=C(N/N=C/c1ccsc1)c1cc(O)c(O)c(O)c1
> 100 µM (inactive)	N#Cc1cccc(NC(=O)CCNS(=O)(=O)c2ccc3[nH]c(=O)oc3c2)c1
> 100 µM (inactive)	O=C(CCCN1C(=O)/C(=C/c2ccco2)SC1=S)Nc1ccccc1
> 100 µM (inactive)	Cc1ccc(NC(=O)CCNS(=O)(=O)c2ccc3[nH]c(=O)oc3c2)cc1F
> 100 µM (inactive)	O=C(CN1C(=O)/C(=C/c2ccco2)SC1=S)N[C@@H]1CSC[C@@H]1O
> 100 µM (inactive)	O=C(CN1C(=O)/C(=C\c2ccco2)SC1=S)Nc1ccc(C(=O)O)cc1
> 100 µM (inactive)	COc1cccc(/C=N/NC(=O)c2cc(O)c(O)c(O)c2)c1
> 100 µM (inactive)	COc1ccc(NC(=O)CSc2sc3c(O)cc(=O)[nH]c3c2C#N)c(OC)c1
> 100 µM (inactive)	CCOc1cccc(NC(=O)CSc2sc3c(O)cc(=O)[nH]c3c2C#N)c1
> 100 µM (inactive)	O=C(N/N=C/C1CC2CCC1C2)c1cc(O)c(O)c(O)c1 (configuration not stated)
> 100 µM (inactive)	C/C(=N\NC(=O)c1cc(O)c(O)c(O)c1)c1ccncc1
21.4 µM	COc1cc(C(=O)NNC(=S)NC(=O)c2ccccc2C)cc(OC)c1OC
> 100 µM (inactive)	N#Cc1c(SCC(=O)Nc2ccccc2C(F)(F)F)sc2c(O)cc(=O)[nH]c12
> 100 µM (inactive)	Cc1cc(NC(=O)CSc2sc3c(O)cc(=O)[nH]c3c2C#N)ccc1Br
> 100 µM (inactive)	CCOC(=O)NC(=O)CSc1sc2c(O)cc(=O)[nH]c2c1C#N

The next lines start with the molecule.

SMILES	EC50
Cc1ccc(NC(=O)CCNS(=O)(=O)c2ccc3[nH]c(=O)oc3c2)cc1N(C)C	> 100 µM (inactive)
O=C(CCCN1C(=O)/C(=C\c2ccco2)SC1=S)Nc1ccc(O)cc1C(=O)O	> 100 µM (inactive)
Cc1ccc(NC(=O)CCNS(=O)(=O)c2ccc3[nH]c(=O)oc3c2)c(C)c1	> 100 µM (inactive)
COc1ccc(N2CCN(C(=O)CN3C(=O)/C(=C\c4ccco4)SC3=S)CC2)cc1	> 100 µM (inactive)
O=C(N/N=C/C1CC=CCC1)c1cc(O)c(O)c(O)c1 (configuration not stated)	> 100 µM (inactive)
CCOc1ccccc1NC(=O)CCNS(=O)(=O)c1ccc2[nH]c(=O)oc2c1	> 100 µM (inactive)
O=C(CN1C(=O)/C(=C\c2ccco2)SC1=S)Nc1ccc(O)cc1C(=O)O	> 100 µM (inactive)
COc1ccc(OC)c(NC(=O)CSc2sc3c(O)cc(=O)[nH]c3c2C#N)c1	> 100 µM (inactive)
COc1ccc(NC(=O)CCNS(=O)(=O)c2ccc3[nH]c(=O)oc3c2)cc1Cl	> 100 µM (inactive)
CCOc1ccccc1CNC(=O)CCNS(=O)(=O)c1ccc2[nH]c(=O)oc2c1	> 100 µM (inactive)
O=C(N/N=C/c1ccco1)c1cc(O)c(O)c(O)c1	> 100 µM (inactive)
COc1cc(C(=O)NN=Cc2ccccn2)cc(OC)c1OC	30.8 µM
Cc1ccc(NC(=O)CCNS(=O)(=O)c2ccc3[nH]c(=O)oc3c2)cc1	> 100 µM (inactive)
O=C(CN1C(=O)/C(=C\c2ccco2)SC1=S)Nc1cccc(C(=O)O)c1	> 100 µM (inactive)
COC(=O)c1ccc(C)c(NC(=O)CSc2sc3c(O)cc(=O)[nH]c3c2C#N)c1	> 100 µM (inactive)
CC(C)N1CCC(=NNC(=O)c2cc(O)c(O)c(O)c2)CC1	> 100 µM (inactive) and 66.6 µM
O=C(CCN1C(=O)/C(=C\c2ccco2)SC1=S)Nc1ccc(C(=O)O)c(O)c1	> 100 µM (inactive)
CC(C(=O)Nc1ccccc1C(=O)O)N1C(=O)/C(=C\c2ccco2)SC1=S (configuration not stated)	> 100 µM (inactive)
O=C(CN1C(=O)/C(=C/c2ccco2)SC1=S)Nc1ccc(C(=O)O)cc1	> 100 µM (inactive)
COc1cc(C(=O)NNC(=O)C2CC2)cc(OC)c1OC	> 100 µM (inactive)
CN1CCC(=NNC(=O)c2cc(O)c(O)c(O)c2)CC1	> 100 µM (inactive) and 64 µM

SMILES	EC50
N#Cc1c(SCC(=O)Nc2nccs2)sc2c(O)cc(=O)[nH]c12	> 100 µM (inactive)
O=C(NCCc1ccc(Cl)cc1)C1CCCN(S(=O)(=O)c2ccc3[nH]c(=O)oc3c2)C1 (configuration not stated)	> 100 µM (inactive)
COc1cccc(NC(=O)CN(C)S(=O)(=O)c2ccc3[nH]c(=O)oc3c2)c1	> 100 µM (inactive)
CCSc1nnc(NC(=O)CSc2sc3c(O)cc(=O)[nH]c3c2C#N)s1	> 100 µM (inactive)
N#Cc1c(SCC(=O)NCc2ccc3c(c2)OCO3)sc2c(O)cc(=O)[nH]c12	> 100 µM (inactive)
O=C(CN1C(=O)/C(=C/c2ccco2)SC1=S)Nc1cccc(C(=O)O)c1	> 100 µM (inactive)
N#Cc1c(SCC(=O)Nc2cccc(F)c2)sc2c(O)cc(=O)[nH]c12	> 100 µM (inactive)
Cc1csc(NC(=O)CSc2sc3c(O)cc(=O)[nH]c3c2C#N)n1	> 100 µM (inactive)
CCN(C(=O)C(C)N1C(=O)/C(=C/c2ccco2)SC1=S)C1CCS(=O)(=O)C1 (configuration not stated)	82.9 µM
O=C(c1ccco1)N1CCN(S(=O)(=O)c2ccc3[nH]c(=O)oc3c2)CC1	> 100 µM (inactive)
O=C(O)CC(C(=O)O)N1C(=O)/C(=C/c2ccc(-c3nc4ccccc4s3)o2)SC1=S (configuration not stated)	> 100 µM (inactive)
O=C(CN1C(=O)/C(=C/c2ccco2)SC1=S)NC1C=CS(=O)(=O)C1 (configuration not stated)	52.6 µM
O=C(CCN1C(=O)/C(=C/c2ccco2)SC1=S)Nc1ccc(C(=O)O)c(O)c1	> 100 µM (inactive)
COc1cc(C(=O)NNC(=S)NC(=O)c2ccc(Cl)cc2)cc(OC)c1OC	19.1 µM
CC(C)C(C(=O)NC1CCS(=O)(=O)C1)N1C(=O)/C(=C\c2ccco2)SC1=S (configuration not stated)	> 100 µM (inactive)
Cc1ccc(/C=C2\SC(=S)N(C3CCS(=O)(=O)C3)C2=O)o1 (configuration not stated)	> 100 µM (inactive)
COc1ccc(CNC(=O)CSc2sc3c(O)cc(=O)[nH]c3c2C#N)cc1	> 100 µM (inactive)
CC(C(=O)NCCc1ccc(O)c(O)c1)N1C(=O)/C(=C\c2ccco2)SC1=S (configuration not stated)	> 100 µM (inactive)
COC(=O)NNC(=O)c1cc(OC)c(OC)c(OC)c1	> 100 µM (inactive)
N#Cc1c(SCC(=O)Nc2nc3ccccc3s2)sc2c(O)cc(=O)[nH]c12	> 100 µM (inactive)
Cc1cc(=O)oc2cc(NC(=S)NCCC(c3ccccc3)c3ccccc3)ccc12	> 100 µM (inactive)

SMILES	EC50
CC(C)NC(=O)CSc1sc2c(O)cc(=O)[nH]c2c1C#N	> 100 µM (inactive)
CC(C(=O)Nc1ccc(C(=O)O)cc1)N1C(=O)/C(=C\c2ccco2)SC1=S (configuration not stated)	> 100 µM (inactive)
Cc1ccc(/C=N/NC(=O)c2cc(O)c(O)c(O)c2)cc1	> 100 µM (inactive)
NS(=O)(=O)c1ccc(-c2ccc(/C=C3\SC(=S)N(C4CCS(=O)(=O)C4)C3=O)o2)cc1 (configuration not stated)	> 100 µM (inactive)
O=C(CCNS(=O)(=O)c1ccc2[nH]c(=O)oc2c1)Nc1cccc(-c2ccno2)c1	> 100 µM (inactive)
S=C(NCCC(c1ccccc1)c1ccccc1)Nc1ccc(Cl)cc1Cl	45.1 µM
CC(C(=O)Nc1ccc(C(=O)O)c(O)c1)N1C(=O)/C(=C\c2ccco2)SC1=S (configuration not stated)	> 100 µM (inactive)
O=C1/C(=C/c2ccco2)SC(=S)N1C1CCS(=O)(=O)C1 (configuration not stated)	42.6 µM
N#Cc1c(SCC(=O)Nc2nncs2)sc2c(O)cc(=O)[nH]c12	> 100 µM (inactive)
COc1ccc(NC(=O)C(CC(C)C)NS(=O)(=O)c2ccc3[nH]c(=O)oc3c2)cc1 (configuration not stated)	> 100 µM (inactive)
O=[N+]([O-])c1ccc(NC(=S)NCCC(c2ccccc2)c2ccccc2)cc1	> 100 µM (inactive)
O=C(CCN1C(=O)/C(=C/c2ccco2)SC1=S)Nc1ccc(O)cc1C(=O)O	> 100 µM (inactive)
O=C(NNC(=O)c1cc(O)c(O)c(O)c1)NC1CCCCC1	> 100 µM (inactive)
O=C(NN=Cc1cccnc1)c1cc(O)c(O)c(O)c1	> 100 µM (inactive)
COc1ccccc1NC(=O)CCNS(=O)(=O)c1ccc2[nH]c(=O)oc2c1	> 100 µM (inactive)
COc1cc([N+](=O)[O-])ccc1NC(=S)NCCC(c1ccccc1)c1ccccc1	> 100 µM (inactive)
COc1ccccc1NC(=O)CSc1sc2c(O)cc(=O)[nH]c2c1C#N	> 100 µM (inactive)
CCOC(=O)N1CCC(NC(=O)CSc2sc3c(O)cc(=O)[nH]c3c2C#N)CC1	> 100 µM (inactive)
CCN(CC)C(=O)CSc1sc2c(O)cc(=O)[nH]c2c1C#N	> 100 µM (inactive)
COc1cc(Cl)c(C)cc1NC(=O)CSc1sc2c(O)cc(=O)[nH]c2c1C#N	> 100 µM (inactive)
